The values below come from US10954221B2, “GLP-1R agonists and uses thereof” (QILU REGOR THERAPEUTICS INC., priority 2019, dated 2021).

The EC50 is the concentration that produces a half-maximal response.

Test [1] concerns the target T1, GLP1R (Homo sapiens, UniProt P43220). The test is described as follows: GLP1R cAMP assay (HTRF), HEK293/GLP-1R/CRE/Luc, Clone 4. (Cyclic AMP is a second messenger, typically raised through Gs and lowered through Gi signalling.)
Target sequence in this assay (P43220 24-463): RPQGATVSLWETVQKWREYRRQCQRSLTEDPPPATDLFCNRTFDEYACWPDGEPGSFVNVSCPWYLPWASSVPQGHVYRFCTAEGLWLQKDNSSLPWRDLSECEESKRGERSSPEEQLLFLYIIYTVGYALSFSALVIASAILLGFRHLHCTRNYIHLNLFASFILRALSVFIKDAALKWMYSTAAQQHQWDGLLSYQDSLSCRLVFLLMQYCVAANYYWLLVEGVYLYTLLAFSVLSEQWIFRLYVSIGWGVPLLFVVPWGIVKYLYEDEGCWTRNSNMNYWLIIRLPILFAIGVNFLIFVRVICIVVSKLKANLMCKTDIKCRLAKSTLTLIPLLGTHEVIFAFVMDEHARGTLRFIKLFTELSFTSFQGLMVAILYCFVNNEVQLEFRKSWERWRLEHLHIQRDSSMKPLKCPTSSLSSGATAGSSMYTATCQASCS
Test [2] deals with T1, GLP1R. The arrangement: Emax: dose or concentration left out as unconfirmed. The settings on record: for Emax: CHO-K1, […], read-out: β-arrestin recruitment Bmax (%).
Target sequence in this assay (P43220 24-463): as above
Target sequence in this assay (P32121 whole entry partner): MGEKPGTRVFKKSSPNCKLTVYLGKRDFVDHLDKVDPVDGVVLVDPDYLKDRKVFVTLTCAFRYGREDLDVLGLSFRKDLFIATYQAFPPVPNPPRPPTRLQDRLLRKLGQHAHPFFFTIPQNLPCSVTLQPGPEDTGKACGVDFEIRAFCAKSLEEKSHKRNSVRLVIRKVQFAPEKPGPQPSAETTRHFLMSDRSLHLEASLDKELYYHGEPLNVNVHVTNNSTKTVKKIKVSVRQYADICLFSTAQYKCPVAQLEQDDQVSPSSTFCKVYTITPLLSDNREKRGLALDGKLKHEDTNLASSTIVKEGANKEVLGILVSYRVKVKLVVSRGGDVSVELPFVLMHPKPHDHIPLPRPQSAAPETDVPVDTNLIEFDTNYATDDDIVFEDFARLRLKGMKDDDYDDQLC
Method: Frozen cells were quickly thawed and 10 mL of cell plating medium (provided by the kit) was added to thawed cells. Cells were stored in a 37° C. incubator under 5% CO2 and kept for approximately 48 hours until ready to run the assay.
Reference and test compounds were dissolved in 100% DMSO. […] 5 μL of this solution was added to 20 μL cell medium in assay plate for a final top concentration of 10 μM. Plates were then incubated at 37° C. under 5% CO2 for 90 min.
Following 90 min incubation, detection reagents were made up by combining 1 part Galacton Star Substrate with 5 parts Emerald II™ Solution, and 19 parts of PathHunter Cell Assay Buffer, respectively. 12.5 μl detection reagent was added to each well. The plates were then incubated at room temperature in dark for 60 min. Plates were then read on Envision for 0.1 sec/well.
EC50 determinations were made from agonist dose-response curves analyzed with a curve fitting program using a 4-parameter logistic dose response equation.
Cells were plated at a density of 1000 or 2000 cells/20 μL/well. Frozen cells were quickly thawed and added to 10 mL of cell plating medium. Cells were stored in a 37 degree incubator under 5% CO2 and left for approximately 48 hours until ready to run the assay
Prepare 10× concentration of an agonist in serum free DMEM, and add all solutions into the compound plate. 2.5 μL of this solution was added to 20 μL cell medium in assay plate for a final top concentration of 10 μM. Plates were incubated at 37° C. under 5% CO2 for 30 min. An additional 2.5 μL of Buffer was added to the entire plate for agonist mode and incubated at 37° C. for another 90 min.
Following 90 min incubation, detection reagents were made up as described. 12.5 μL was added to all wells. The plates were then incubated at room temperature in dark for 60 min. Plates were then read on Envision for 0.1 sec/well.
Data analysis: GraphPad Prism 6 was used for establishment of progression curve. EC50s or IC50s were determined by 4-parameter logistic dose response equation.

Consider `O=C(O)c1ccc2nc(Cc3cc(F)c(-c4cccc(OCc5ccc(Cl)cc5F)n4)cc3F)n(C[C@@H]3CCO3)c2c1` [Compound 257, (S)-2-(4-(6-((4-chloro-2-fluorobenzyl)oxy)pyridin-2-yl)-2,5-difluorobenzyl)-1-(oxetan-2-ylmethyl)-1H-benzo[d]imidazole-6-carboxylic acid], for which the EC50 at GLP1R [1] is < 15 nM. Further, the Emax at GLP1R [2] amounted to 31.4%.
As to `N#Cc1ccc(COc2nc(-c3ccc(Cc4nc5ccc(C(=O)O)nc5n4C[C@@H]4CCO4)cc3F)ccc2F)c(F)c1` [Compound 289, (S)-2-(4-(6-((4-cyano-2-fluorobenzyl)oxy)-5-fluoropyridin-2-yl)-3-fluorobenzyl)-3-(oxetan-2-ylmethyl)-3H-imidazo[4,5-b]pyridine-5-carboxylic acid], the EC50 on GLP1R [1] was < 15 nM. For the same compound, the Emax on GLP1R [2] amounted to 29.6%.
For the compound `N#Cc1ccc(COc2cccc(-c3ccc(Cc4nc5ccc(C(=O)O)nc5n4C[C@@H]4CCO4)cc3F)n2)c(F)c1` [Compound 293, (S)-2-(4-(6-((4-cyano-2-fluorobenzyl)oxy)pyridin-2-yl)-3-fluorobenzyl)-3-(oxetan-2-ylmethyl)-3H-imidazo[4,5-b]pyridine-5-carboxylic acid], the EC50 at GLP1R [1] is < 15 nM. Also, the Emax at GLP1R [2] turned out to be 32%.
Consider `N#Cc1ccc(COc2cccc(-c3cc(F)c(Cc4nc5ccc(C(=O)O)cc5n4C[C@@H]4CCO4)cc3F)n2)c(F)c1` [Compound 271, (S)-2-(4-(6-((4-cyano-2-fluorobenzyl)oxy)pyridin-2-yl)-2,5-difluorobenzyl)-1-(oxetan-2-ylmethyl)-1H-benzo[d]imidazole-6-carboxylic acid], for which the EC50 on GLP1R [1] is < 15 nM. Besides, the Emax at GLP1R [2] was found to be 28.5%.
For `CC1(c2ccc(C#N)cc2F)Oc2cccc(C3=CCN(Cc4nc5ccc(C(=O)O)cc5n4C[C@@H]4CCO4)CC3)c2O1` (stereo partly drawn) [Compound 334, 2-((4-(2-(4-cyano-2-fluorophenyl)-2-methylbenzo[d][1,3]dioxol-4-yl)-3,6-dihydropyridin-1(2H)-yl)methyl)-1-(((S)-oxetan-2-yl)methyl)-1H-benzo[d]imidazole-6-carboxylic acid] the same measures were < 15 nM and 26.6%.
For `O=C(O)c1ccc2nc(CN3CC=C(c4csnc4OCc4ccc(Cl)cc4F)CC3)n(C[C@@H]3CCO3)c2c1` [Compound 332, (S)-2-((4-(3-(4-chloro-2-fluorobenzyloxy)isothiazol-4-yl)-5,6-dihydropyridin-(2H)-yl)methyl)-1-(oxetan-2-ylmethyl)-1H-benzo[d]imidazole-6-carboxylic acid] the same measures were < 15 nM and 14.5%.
As to `O=C(O)c1ccc2nc(Cc3ccc(-c4cccc(OCc5ccc(Cl)cc5F)n4)c(F)c3)n(C[C@@H]3CCO3)c2n1` [Compound 102, (S)-2-(4-(6-((4-chloro-2-fluorobenzyl)oxy)pyridin-2-yl)-3-fluorobenzyl)-3-(oxetan-2-ylmethyl)-3H-imidazo[4,5-b]pyridine-5-carboxylic acid], the EC50 on GLP1R [1] is < 15 nM. Moreover, the Emax at GLP1R [2] was 28.3%.
The like results for `O=C(O)c1ccc2nc(Cc3ccc(-c4ncc(F)c(OCc5ccc(F)cc5F)n4)cc3F)n(C[C@@H]3CCO3)c2n1` [Compound 285, (S)-2-(4-(4-((2,4-difluorobenzyl)oxy)-5-fluoropyrimidin-2-yl)-2-fluorobenzyl)-3-(oxetan-2-ylmethyl)-3H-imidazo[4,5-b]pyridine-5-carboxylic acid] were, in that order, < 15 nM and 24%.
For `N#Cc1ccc(COc2nc(-c3ccc(Cc4nc5ccc(C(=O)O)nc5n4C[C@@H]4CCO4)c(F)c3)ccc2F)c(F)c1` [Compound 284, (S)-2-(4-(6-(4-cyano-2-fluorobenzyloxy)-5-fluoropyridin-2-yl)-2-fluorobenzyl)-3-(oxetan-2-ylmethyl)-3H-imidazo[4,5-b]pyridine-5-carboxylic acid] the same measures were < 15 nM and 25.5%.
As for `O=C(O)c1ccc2nc(CN3CC=C(c4scnc4OCc4ccc(Cl)cc4F)CC3)n(C[C@@H]3CCO3)c2c1` [Compound 331, (S)-2-((4-(4-((4-chloro-2-fluorobenzyl)oxy)thiazol-5-yl)-3,6-dihydropyridin-1(2H)-yl)methyl)-1-(oxetan-2-ylmethyl)-1H-benzo[d]imidazole-6-carboxylic acid], the EC50 at GLP1R [1] is < 15 nM. Also, the Emax on GLP1R [2] stood at 17.9%.
Consider `O=C(O)c1ccc2nc(Cn3ccc(-c4cccc(OCc5ccc(Cl)cc5F)n4)cc3=O)n(C[C@@H]3CCO3)c2c1` [Compound 323, (S)-2-((6-((4-chloro-2-fluorobenzyl)oxy)-2′-oxo-[2,4′-bipyridin]-1′(2′H)-yl)methyl)-1-(oxetan-2-ylmethyl)-1H-benzo[d]imidazole-6-carboxylic acid], for which, on GLP1R [1], the EC50 was < 15 nM. Besides, at GLP1R [2] (partial maximum relative effect at the highest concentration tested (top 10 μM), relative to Bmax of GLP-1 (7-37), PathHunter CHO-K1 GLP1R β-Arrestin cells), the “β-arrestin recruitment Bmax (%)” value was found to be 19.4%.
Regarding `Cc1cc(-c2cccc(OCc3ccc(Cl)cc3F)n2)ccc1Cc1nc2ccc(C(=O)O)cc2n1C[C@@H]1CCO1` [Compound 295, (S)-2-(4-(6-((4-chloro-2-fluorobenzyl)oxy)pyridin-2-yl)-2-methylbenzyl)-1-(oxetan-2-ylmethyl)-1H-benzo[d]imidazole-6-carboxylic acid], the EC50 at GLP1R [1] is < 15 nM.
Turning to `O=C(O)c1ccc2nc(CN3CC=C(c4csc(OCc5ccc(C#CC6CC6)cc5F)n4)CC3)n(C[C@@H]3CCO3)c2c1` [Compound 249, (S)-2-((4-(2-((4-(cyclopropylethynyl)-2-fluorobenzyl)oxy)thiazol-4-yl)-3,6-dihydropyridin-1(2H)-yl)methyl)-1-(oxetan-2-ylmethyl)-1H-benzo[d]imidazole-6-carboxylic acid], on GLP1R [1], the EC50 fell in the range of 15 to 150 nM.
Same read-out and setting: in the case of `O=C(O)c1ccc2nc(Cc3ccc(-c4ccc(F)c(OCc5ccc(Cl)cc5F)n4)cc3F)n(C[C@@H]3CCO3)c2n1` [Compound 283, (S)-2-(4-(6-(4-chloro-2-fluorobenzyloxy)-5-fluoropyridin-2-yl)-2-fluorobenzyl)-3-(oxetan-2-ylmethyl)-3H-imidazo[4,5-b]pyridine-5-carboxylic acid] it was < 15 nM; in that of `O=C(O)c1ccc2nc(CN3CC=C(c4cccnc4OCc4ccc(Cl)cc4F)CC3)n(C[C@@H]3CCO3)c2c1` [Compound 329, (S)-2-((2-((4-chloro-2-fluorobenzyl)oxy)-3′,6′-dihydro-[3,4′-bipyridin]-1′(2′H)-yl)methyl)-1-(oxetan-2-ylmethyl)-1H-benzo[d]imidazole-6-carboxylic acid], 15 to 150 nM.
Still for that read-out and setting: under `O=C(O)c1ccc2nc(CN3CC=C(c4csc(OCc5ccc(F)cc5Cl)n4)CC3)n(C[C@@H]3CCO3)c2c1` [Compound 254, (S)-2-((4-(2-((2-chloro-4-fluorobenzyl)oxy)thiazol-4-yl)-3,6-dihydropyridin-1(2H)-yl)methyl)-1-(oxetan-2-ylmethyl)-1H-benzo[d]imidazole-6-carboxylic acid] stands 15 to 150 nM; under `O=C(O)c1ccc2nc(CN3CC=C(c4csc(OCc5ccc(Cl)cn5)n4)CC3)n(C[C@@H]3CCO3)c2c1` [Compound 250, (S)-2-((4-(2-((5-chloropyridin-2-yl)methoxy)thiazol-4-yl)-3,6-dihydropyridin-1(2H)-yl)methyl)-1-(oxetan-2-ylmethyl)-1H-benzo[d]imidazole-6-carboxylic acid], 15 to 150 nM.
For `O=C(O)c1ccc2nc(Cc3ccc(-c4nc(OCc5ccc(Cl)cc5F)c(F)cc4F)c(F)c3)n(C[C@@H]3CCO3)c2n1` [Compound 306, (S)-2-(4-(6-((4-chloro-2-fluorobenzyl)oxy)-3,5-difluoropyridin-2-yl)-3-fluorobenzyl)-3-(oxetan-2-ylmethyl)-3H-imidazo[4,5-b]pyridine-5-carboxylic acid], the EC50 on GLP1R [1] is < 15 nM.
The same measure, in the same setting: under `O=C(O)c1ccc2nc(CN3CC=C(c4nc(OCc5ccc(Cl)cc5F)cs4)CC3)n(C[C@@H]3CCO3)c2c1` [Compound 246, (S)-2-((4-(4-((4-chloro-2-fluorobenzyl)oxy)thiazol-2-yl)-3,6-dihydropyridin-1(2H)-yl)methyl)-1-(oxetan-2-ylmethyl)-1H-benzo[d]imidazole-6-carboxylic acid] stands 15 to 150 nM; under `O=C(O)c1ccc2nc(Cc3ccc(-c4cccc(OCc5ccc(Cl)cc5F)n4)cc3Cl)n(C[C@@H]3CCO3)c2c1` [Compound 258, (S)-2-(2-chloro-4-(6-((4-chloro-2-fluorobenzyl)oxy)pyridin-2-yl)benzyl)-1-(oxetan-2-ylmethyl)-1H-benzo[d]imidazole-6-carboxylic acid], < 15 nM.
Consider `O=C(O)c1ccc2nc(CN3CC=C(c4csc(OCc5ccc(C(F)(F)F)nc5)n4)CC3)n(C[C@@H]3CCO3)c2c1` [Compound 255, (S)-1-(oxetan-2-ylmethyl)-2-((4-(2-((6-(trifluoromethyl)pyridin-3-yl)methoxy)thiazol-4-yl)-3,6-dihydropyridin-1(2H)-yl)methyl)-1H-benzo[d]imidazole-6-carboxylic acid], for which the EC50 at GLP1R [1] is 15 to 150 nM.
Same read-out and setting: under `O=C(O)c1ccc2nc(CN3CC=C(c4csc(OCc5ccc(F)cc5F)n4)CC3)n(C[C@@H]3CCO3)c2c1` [Compound 252, (S)-2-((4-(2-((2,4-difluorobenzyl)oxy)thiazol-4-yl)-3,6-dihydropyridin-1(2H)-yl)methyl)-1-(oxetan-2-ylmethyl)-1H-benzo[d]imidazole-6-carboxylic acid] stands 15 to 150 nM.
Take `N#Cc1ccc(COc2nc(-c3cc(F)c(Cc4nc5ccc(C(=O)O)c(F)c5n4C[C@@H]4CCO4)cc3F)ncc2F)nc1` [Compound 313, (S)-2-(4-(4-((5-cyanopyridin-2-yl)methoxy)-5-fluoropyrimidin-2-yl)-2,5-difluorobenzyl)-7-fluoro-1-(oxetan-2-ylmethyl)-1H-benzo[d]imidazole-6-carboxylic acid]: at GLP1R [1], the 50% effective concentration (EC50) was < 15 nM.
